# Results published in publication PMC8954350, “Non-Canonical Cannabinoid Receptors with Distinct Binding and Signaling Properties in Prostate and Other Cancer Cell Types Mediate Cell Death” (International Journal of Molecular Sciences, 2022).
# “And” between values parts separate entries of the source, which are not always exact repeats. Equal values may be shown once. Marks after values point to notes of the source that are not given here.
# How the values were obtained:
# [1] = tested on: CBRs expressed in DU-145 membranes; assay type: biochemical, human; details: 10 μM
# Protocol: (§1) Non-specific binding was defined as radioactivity remaining in the presence of 10 μM of non-radioactive GTPγS and subtracted from total binding to determine specific [^35S]GTPγS binding. All binding reactions were conducted in triplicate, in a final volume of 1 mL, and, following mixing, were incubated for 30 min at 30 °C. After incubation, reactions were terminated by rapid vacuum filtration through Whatman GF/B glass fiber filters (Brandel; Gaithersburg, MD, USA), followed by three washes of 4 mls of ice-cold filtration buffer (50 mM Tris, pH 7.4, and 0.05% bovine serum albumin). Samples were punched out from filter papers into scintillation vials, to which 4 mls of ScintiverseTM-BDR cocktail scintillation fluid (Fisher Scientific; Hampton, NH, USA) was added. Filters were incubated at room temperature for 24 h in scintillation fluid, vortexed, and radioactivity (measured as DPMs) was determined via a liquid scintillation spectrophotometer (Tri Carb 2100 TR Liquid Scintillation Analyzer, Packard Instruments, Meriden, CT, USA).
# [2] = tested on: CBRs expressed in PC-12 cells; assay: [^3H]CP-55,940 competitive binding screen, PC-12 membranes; parameters: species or system rat; details: 1 μM ligand, 0.2 nM radioligand
# Protocol: as §1, with “The assay” for “Non-specific binding”, “conducted” for “defined”, “previously detailed. […]” for “radioactivity remaining in the presence of 10 μM of non-radioactive GTPγS and subtracted from total binding to determine specific [^35S]GTPγS binding.”, “20” for “30”, “in a 37 °C water bath to achieve equilibrium.” for “at 30 °C.”, “quantified” for “determined”
# [3] = tested on: DU-145 cells; assay: Mitochondrial membrane potential (JC-1 staining), DU-145 cells; assay type: cell-based, human; details: 24 h; for mitochondrial membrane potential (MMP) depolarization: JC-1
# [4] = tested on: CBRs expressed in DU-145 cells; assay: Adenylyl cyclase modulation in whole DU-145 cells; assay type: cell-based, human; details: 10 μM, with or without pertussis toxin
# Protocol: (§2) These experiments were conducted to examine modulation of adenylyl cyclase activity by cannabinoid ligands in prostate cancer cell lines DU-145 and PC-3, as described earlier. CHO-hCB2, DU-145, or PC-3 cells were seeded into 24 well plates at a density of 8 × 10^6 cells per plate in growth media (DMEM for DU-145 and CHO-hCB2 cells or F12-K for PC-3 cells). Growth media contained FetalPlex (10%) and 1% pennicillin/streptomycin. Cells were cultured overnight in a humidified incubator maintained at 37 °C with 5% CO2. For some experiments, a subset of wells were treated overnight with pertussis toxin (2 μL/mL) to abolish Gi/Go protein-mediated signaling. Following overnight incubation, growth media was replaced with an incubation media containing either DMEM (for DU-145 and CHO-hCB2) or F12-K (for PC-3) with 0.9 g/l NaCl, 2.5 μCi/mL of [^3H]adenine, and 0.5 mM IBMX, and cells were kept in a humidified incubator maintained at 37 °C with 5% CO2 for 4 h. […] Finally, 10 mL of Scintiverse^TM BD Cocktail scintillation fluid (Fisher Scientific; Hampton, NH, USA) was added to eluates and radioactivity (quantified as DPMs) was quantified via a liquid scintillation spectrophotometer (Tri Carb 2100 TR Liquid Scintillation Analyzer, Packard Instruments, Meriden, CT, USA).
# [5] = tested on: CBRs expressed in PC-3 cells; assay: Adenylyl cyclase modulation in whole PC-3 cells; assay type: cell-based, human; details: 10 μM, with or without pertussis toxin
# Protocol: as §2
# [6] = target: CBRs expressed in PC-3 membranes; assay type: binding, human
# Protocol: (§3) The assay was performed as previously detailed. […] All binding reactions were conducted in triplicate, in a final volume of 1 mL, and, following mixing, were incubated for 20 min in a 37 °C water bath to achieve equilibrium. After incubation, reactions were terminated by rapid vacuum filtration and processed for radioactivity, as detailed in Section 4.5.1.
# (§4) Curve-fitting and all statistical analyses were performed using GraphPad Prism® v8.0g (GraphPad Software, Inc.; San Diego, CA, USA). […] For CBR screening studies, a one-sample t-test was performed to determine differences from 100% (e.g., to quantify compounds producing displacement), followed by a one-way ANOVA and Tukey’s post hoc tests to compare displacement produced by all drugs. […] To compare specific CBR affinity (Ki) between ligands, non-linear regression analysis was employed to determine experimental IC50 values from competition receptor binding assays, which were then converted to Ki values using the Cheng–Prusoff equation [35]. Ki values were converted to pKi values so that parametric tests could be used and statistically compared by employing a one-way ANOVA followed by Tukey’s post hoc test. For statistical analyses of [^35S]GTPγS, adenylyl cyclase, and chronic experiments, a one-sample t-test was performed to detect differences from 100% (e.g., basal levels), followed by comparison of all means by a one-way ANOVA and Tukey’s post hoc test. For LDH release, ATP-dependent cell viability and JC-1 staining assays, drug effects were first analyzed by a one-sample t-test to determine differences from 0 or 100% (vehicle), followed by a one-way ANOVA and Dunnett’s post hoc test to compare all means. Significance for all statistical tests was defined at a minimal level of p < 0.05.
# [7] = target: CBRs expressed in DU-145 membranes; assay type: binding, human
# Protocol: as §3, §4
Compound,decrease in [^35S]GTPγS binding below basal levels [1],modulation of [^35S]GTPγS binding [1],"displacement of [^3H]CP-55,940 [2]",mitochondrial membrane potential (MMP) depolarization ([3]; 10 μM),mitochondrial membrane potential (MMP) depolarization ([3]; 50 μM),change in forskolin-stimulated intracellular cAMP levels [4],change in forskolin-stimulated intracellular cAMP levels [5],Ki [6],pKi (−log Ki) [6],Ki [7],pKi (−log Ki) [7],MMP on co-incubation with GW-405833 (10 μM) ([3]; 10 μM ligand co-incubated)
"Cc1c(C(=O)c2cccc3ccccc23)c2cccc3c2n1[C@H](CN1CCOCC1)CO3 [WIN-55,212-2]",15.3 ± 1.6%,neither the agonist at canonical CB1/CB2 receptors WIN-55-212-2 (10 μM) nor the CB2-selective agonist GW-405-833 (10 μM) increased [^35S]GTPγS binding,"neither the non-selective CBR ligand CP-55,940 nor WIN-55,212-2 produced significant displacement",produced effects only at 50 μM,produced effects only at 50 μM,neither WIN-55-212-2 nor rimonabant significantly altered intracellular cAMP levels,neither WIN-55-212-2 nor rimonabant significantly altered intracellular cAMP levels,,,,,
COc1ccc2c(c1)c(CCN1CCOCC1)c(C)n2C(=O)c1cccc(Cl)c1Cl [GW-405833],,neither the agonist at canonical CB1/CB2 receptors WIN-55-212-2 (10 μM) nor the CB2-selective agonist GW-405-833 (10 μM) increased [^35S]GTPγS binding,,,,,,296 nM,6.47 ± 0.17 ^b,~290 nM and 290 nM,6.5 ± 0.12 ^b,
Cc1c(C(=O)NN2CCCCC2)nn(-c2ccc(Cl)cc2Cl)c1-c1ccc(Cl)cc1 [rimonabant],,did reduce [^35S]GTPγS binding below basal levels,,reduced MMP,,neither WIN-55-212-2 nor rimonabant significantly altered intracellular cAMP levels,neither WIN-55-212-2 nor rimonabant significantly altered intracellular cAMP levels,54.1 nM,,102 nM,7.04 ± 0.15 ^a,MMP was not significantly reduced from vehicle-treated levels
